Assay results reported in ChEMBL document CHEMBL4152303, “Structure-activity relationships of imidazothiazinones and analogs as antagonists of the cannabinoid-activated orphan G protein-coupled receptor GPR18” (Eur J Med Chem, 2018).

Experiments:
Cannabinoid receptor 2 = Cannabinoid receptor 2 (Homo sapiens, UniProt P34972); experiment: Displacement of [3H]CP55940 from recombinant human CB2 receptor expressed in CHO cell membranes after 2 hrs by liquid scintillation counting method; settings: for inhibition: concentration not given here
[1] = biological target: T1, N-arachidonyl glycine receptor (Homo sapiens) (UniProt Q14330); experiment: (§1) Agonist activity at recombinant human GPR18 expressed in CHO cells assessed as increase in beta-arrestin recruitment incubated for 60 mins measured for 1 sec by luminescence assay; assay type: functional, cell-based
T1 sequence (whole entry): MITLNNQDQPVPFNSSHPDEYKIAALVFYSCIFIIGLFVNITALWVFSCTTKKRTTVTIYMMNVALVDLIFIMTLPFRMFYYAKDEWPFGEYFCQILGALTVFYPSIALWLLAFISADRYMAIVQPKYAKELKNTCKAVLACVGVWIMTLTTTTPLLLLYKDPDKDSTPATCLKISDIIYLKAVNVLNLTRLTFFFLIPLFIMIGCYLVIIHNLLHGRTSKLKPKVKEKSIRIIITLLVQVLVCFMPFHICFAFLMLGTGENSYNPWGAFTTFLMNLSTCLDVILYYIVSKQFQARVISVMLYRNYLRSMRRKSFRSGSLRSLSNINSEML

[2] = biological target: T2, N-arachidonyl glycine receptor (Homo sapiens, UniProt Q14330); experiment: as §1; assay type: functional, cell-based
T2 sequence (Q14330 whole entry): T1 sequence (whole entry)

[3] = biological target: T1, N-arachidonyl glycine receptor (Homo sapiens); experiment: Competitive antagonist activity at recombinant human GPR18 expressed in CHO cells assessed as inhibition of delta9-THC-induced beta-arrestin recruitment preincubated for 60 mins followed by delta9-THC addition for 90 mins measured for 1 sec by luminescence assay; assay type: functional, cell-based
Cannabinoid receptor 1 = Cannabinoid receptor 1 (Homo sapiens, UniProt P21554); experiment: Displacement of [3H]CP55940 from recombinant human CB1 receptor expressed in CHO cell membranes after 2 hrs by liquid scintillation counting method; settings: for inhibition: concentration not given here
[4] = biological target: T1, N-arachidonyl glycine receptor (Homo sapiens); experiment: (§2) Antagonist activity at recombinant human GPR18 expressed in CHO cells assessed as inhibition of delta9-THC-induced beta-arrestin recruitment preincubated for 60 mins followed by delta9-THC addition for 90 mins measured for 1 sec by luminescence assay; assay type: functional, cell-based
[5] = biological target: T2, N-arachidonyl glycine receptor; experiment: as §2; assay type: functional, cell-based
[6] = biological target: T3, G-protein coupled receptor 55 (Homo sapiens, UniProt Q9Y2T6); experiment: Agonist activity at recombinant human GPR55 expressed in CHO cells assessed as increase in beta-arrestin recruitment incubated for 60 mins measured for 1 sec by luminescence assay; assay type: functional, cell-based
[7] = biological target: T3, G-protein coupled receptor 55; experiment: Antagonist activity at recombinant human GPR55 expressed in CHO cells assessed as inhibition of lysophosphatidylinositol-induced beta-arrestin recruitment preincubated for 60 mins followed by lysophosphatidylinositol addition for 90 mins measured for 1 sec by luminescence assay; assay type: functional, cell-based
[8] = biological target: T2, N-arachidonyl glycine receptor; experiment: Agonist activity at recombinant human GPR18 expressed in HEK293 cells assessed as induction of p44/42 MAPK phosphorylation after 5 mins by Western blot analysis; assay type: functional, cell-based
[9] = biological target: T2, N-arachidonyl glycine receptor; experiment: Agonist activity at recombinant full length human GPR18 expressed in CHO cells assessed as forskolin-stimulated cAMP accumulation after 10 mins by enzyme immunoassay; assay type: functional, cell-based

T3 sequence (Q9Y2T6 whole entry): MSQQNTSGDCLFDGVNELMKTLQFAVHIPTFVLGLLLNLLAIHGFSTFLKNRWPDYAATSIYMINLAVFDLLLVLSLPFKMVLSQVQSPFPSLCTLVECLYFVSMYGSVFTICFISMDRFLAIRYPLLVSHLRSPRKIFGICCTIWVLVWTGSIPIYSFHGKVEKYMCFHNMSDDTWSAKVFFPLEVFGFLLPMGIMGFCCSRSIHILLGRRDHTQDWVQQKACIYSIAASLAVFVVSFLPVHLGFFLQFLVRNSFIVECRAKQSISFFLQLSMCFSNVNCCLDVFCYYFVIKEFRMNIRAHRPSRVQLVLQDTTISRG
Sequence of Cannabinoid receptor 2 (P34972 whole entry): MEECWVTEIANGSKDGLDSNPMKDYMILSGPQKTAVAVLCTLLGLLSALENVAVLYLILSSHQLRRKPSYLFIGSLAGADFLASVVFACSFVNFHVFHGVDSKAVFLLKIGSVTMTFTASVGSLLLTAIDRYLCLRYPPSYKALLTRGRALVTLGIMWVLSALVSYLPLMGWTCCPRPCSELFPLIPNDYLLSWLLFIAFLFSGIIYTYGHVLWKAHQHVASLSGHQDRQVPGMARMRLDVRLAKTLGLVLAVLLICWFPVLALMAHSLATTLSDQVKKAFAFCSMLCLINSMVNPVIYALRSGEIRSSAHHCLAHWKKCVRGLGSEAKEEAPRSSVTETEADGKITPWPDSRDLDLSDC
Sequence of Cannabinoid receptor 1 (P21554 whole entry): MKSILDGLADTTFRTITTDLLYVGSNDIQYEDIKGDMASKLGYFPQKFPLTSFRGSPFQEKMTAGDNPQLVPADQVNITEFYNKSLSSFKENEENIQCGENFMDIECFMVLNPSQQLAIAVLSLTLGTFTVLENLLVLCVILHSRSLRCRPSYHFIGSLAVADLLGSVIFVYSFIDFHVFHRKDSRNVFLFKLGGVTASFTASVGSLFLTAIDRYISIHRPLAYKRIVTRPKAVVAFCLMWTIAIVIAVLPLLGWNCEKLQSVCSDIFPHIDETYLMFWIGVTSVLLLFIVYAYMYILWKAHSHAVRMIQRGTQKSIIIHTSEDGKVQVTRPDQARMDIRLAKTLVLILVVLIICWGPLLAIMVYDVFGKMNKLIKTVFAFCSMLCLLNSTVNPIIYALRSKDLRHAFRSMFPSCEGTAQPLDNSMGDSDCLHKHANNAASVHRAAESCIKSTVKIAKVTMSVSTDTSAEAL

O=C1/C(=C/c2cccc(OCCCCCCOc3ccc(Cl)cc3)c2)N=C2SCCCN12
Ki (Cannabinoid receptor 2): > 10 µM | inhibition (Cannabinoid receptor 2): 12% | %max [1]: -37% | EC50 [2]: > 10 µM | Kb [3]: 0.626 µM | pKb [3]: 6.2 | Ki (Cannabinoid receptor 1): > 10 µM | Imax [4]: 122% | IC50 [5]: 0.65 µM | %max [6]: -15% | EC50 [6]: > 10 µM | IC50 [7]: > 10 µM | Imax [7]: 37%

CCCCC/C=C\C/C=C\C/C=C\C/C=C\CCCC(=O)NCC(=O)O [ARACHIDONOYL GLYCINE]
EC50 [8]: 0.044 µM | EC50 [9]: 0.02 µM

Cc1ccc(OCCCCCCOc2cccc(/C=C3\N=C4SCCCN4C3=O)c2)cc1
Ki (Cannabinoid receptor 2): > 10 µM | inhibition (Cannabinoid receptor 2): 12% | %max [1]: -12% | EC50 [2]: > 10 µM | Ki (Cannabinoid receptor 1): > 10 µM | inhibition (Cannabinoid receptor 1): 9% | Imax [4]: 81% | IC50 [5]: 0.238 µM | %max [6]: 35% | EC50 [6]: > 10 µM | IC50 [7]: 2.91 µM | Imax [7]: 86%

O=C1/C(=C/c2cccc(OCc3ccc(Cl)cc3)c2)N=C2SCCN12
Ki (Cannabinoid receptor 2): > 10 µM | inhibition (Cannabinoid receptor 2): 28% | %max [1]: 1% | EC50 [2]: > 10 µM | Ki (Cannabinoid receptor 1): > 10 µM | inhibition (Cannabinoid receptor 1): 18% | Imax [4]: 40% | IC50 [5]: > 10 µM | %max [6]: -3% | EC50 [6]: > 10 µM | IC50 [7]: > 10 µM | Imax [7]: 42%

O=C1N=C2SCCN2/C1=C\c1cccc(OCc2ccc(Cl)cc2)c1
Ki (Cannabinoid receptor 2): > 10 µM | inhibition (Cannabinoid receptor 2): 41% | %max [1]: 13% | EC50 [2]: > 10 µM | Imax (Cannabinoid receptor 1): 60% | Ki (Cannabinoid receptor 1): 1.67 µM | Imax [4]: 25% | IC50 [5]: > 10 µM | %max [6]: 2% | EC50 [6]: > 10 µM | IC50 [7]: > 10 µM | Imax [7]: 19%

CC(C)c1ccc(OCCCCCCOc2cccc(/C=C3\N=C4SCCCN4C3=O)c2)cc1
Ki (Cannabinoid receptor 2): > 10 µM | inhibition (Cannabinoid receptor 2): 46% | %max [1]: 15% | EC50 [2]: > 10 µM | Ki (Cannabinoid receptor 1): > 10 µM | inhibition (Cannabinoid receptor 1): 33% | Imax [4]: 24% | IC50 [5]: > 10 µM | %max [6]: 45% | EC50 [6]: > 10 µM | IC50 [7]: > 10 µM | Imax [7]: 32%

O=C1/C(=C/c2cccc(OCCCCOc3ccc(Cl)cc3)c2)N=C2SCCCN12
Ki (Cannabinoid receptor 2): > 10 µM | inhibition (Cannabinoid receptor 2): 3% | %max [1]: -16% | EC50 [2]: > 10 µM | Ki (Cannabinoid receptor 1): > 10 µM | Imax [4]: 116% | IC50 [5]: 2.38 µM | %max [6]: 11% | EC50 [6]: > 10 µM | IC50 [7]: > 10 µM | Imax [7]: 26%

O=C1/C(=C/c2cccc(OCc3ccc(F)cc3)c2)N=C2SCCCN12
Ki (Cannabinoid receptor 2): > 10 µM | inhibition (Cannabinoid receptor 2): 46% | %max [1]: 6% | EC50 [2]: > 10 µM | Ki (Cannabinoid receptor 1): > 10 µM | inhibition (Cannabinoid receptor 1): 35% | Imax [4]: 3% | IC50 [5]: > 10 µM | %max [6]: -30% | EC50 [6]: > 10 µM | IC50 [7]: 4.22 µM | Imax [7]: 149%

O=C1NC(SCc2ccc(Cl)cc2)=N/C1=C\c1cccc(OCc2ccc(Cl)cc2)c1
Ki (Cannabinoid receptor 2): > 10 µM | inhibition (Cannabinoid receptor 2): 30% | %max [1]: 5% | EC50 [2]: > 10 µM | Ki (Cannabinoid receptor 1): > 10 µM | inhibition (Cannabinoid receptor 1): 36% | Imax [4]: 35% | IC50 [5]: > 10 µM | %max [6]: -10% | EC50 [6]: > 10 µM | IC50 [7]: > 10 µM | Imax [7]: 41%

O=C1/C(=C/c2cccc(OCCc3ccccc3)c2)N=C2SCCCN12
Ki (Cannabinoid receptor 2): > 10 µM | inhibition (Cannabinoid receptor 2): 19% | %max [1]: 8% | EC50 [2]: > 10 µM | Ki (Cannabinoid receptor 1): > 10 µM | inhibition (Cannabinoid receptor 1): 24% | Imax [4]: 16% | IC50 [5]: > 10 µM | %max [6]: -42% | EC50 [6]: > 10 µM | IC50 [7]: 29.3 µM | Imax [7]: 130%
